Active and inactive are the calls of the source. The calls are words filed in the database; no cut-off is given here.
Legend:
Mus musculus [1] = assay: In vivo microfilariacidal activity against Acanthocheilonema viteae infection in Mastomys natalensis at 200 mg/kg for 5 days after peroral administration; Inactive; type: functional, organism-based; design: dose 200 mg/kg
Mus musculus [2] = species on record: Mus musculus; assay: The compound was evaluated for sterilization effect on female Acanthocheilonema viteae in Mastomys natalensis; Inactive; type: functional, organism-based
Mus musculus [3] = assay: In vivo macrofilaricidal activity against Acanthocheilonema viteae infection in Mastomys natalensis at 200 mg/kg for 5 days after peroral administration; Inactive; type: functional, organism-based; design: dose 200 mg/kg
[4] = In vivo microfilariacidal activity against Acanthocheilonema viteae infection in Mastomys natalensis at 200 mg/kg for 5 days after peroral administration; type: functional; conditions: route oral
[5] = In vivo macrofilaricidal activity against Acanthocheilonema viteae infection in Mastomys natalensis at 200 mg/kg for 5 days after peroral administration; type: functional; conditions: route oral
[6] = The compound was evaluated for sterilization effect on female Acanthocheilonema viteae in Mastomys natalensis; type: functional, Mus musculus; design: concentration or dose not given beside the values

Compound	Reduction (Mus musculus [1])	Reduction (Mus musculus [2])	Reduction (Mus musculus [3])	Reduction [4]	Reduction [5]	Reduction [6]
CCC(C)C(NC(=O)OC(C)(C)C)C(=O)N1CCN(CCNc2ccnc3cc(Cl)ccc23)CC1 (stereo not drawn)	inactive	inactive	inactive			
NC(Cc1ccccc1)C(=O)N1CCN(CCNc2ccnc3cc(Cl)ccc23)CC1 (stereo not drawn)	inactive	inactive	inactive			
CC(NC(=O)OC(C)(C)C)C(=O)N1CCN(CCNc2ccnc3cc(Cl)ccc23)CC1 (stereo not drawn)	inactive	inactive	inactive			
CC(C)(C)OC(=O)NC(Cc1ccccc1)C(=O)N1CCN(CCNc2ccnc3cc(Cl)ccc23)CC1 (stereo not drawn)				0%	0%	50%
OCCNc1ccnc2cc(Cl)ccc12				86%	22%	0%
O=C(O)C(CCCCNc1ccnc2cc(Cl)ccc12)Nc1ccnc2cc(Cl)ccc12 (stereo not drawn)				85%	0%	0%
CCC(C)C(N)C(=O)N1CCN(CCNc2ccnc3cc(Cl)ccc23)CC1 (stereo not drawn)	inactive	inactive	inactive			
Clc1ccc2c(NCc3ccco3)ccnc2c1	inactive	inactive	inactive			
O=[N+]([O-])c1ccc(NNc2ccnc3cc(Cl)ccc23)cc1				41%	78%	50%
N#Cc1ccc(OCCNc2ccnc3cc(Cl)ccc23)cc1				0%	56%	0%
Clc1ccc2c(NCCN3CCN(c4ccccn4)CC3)ccnc2c1	inactive	inactive	inactive			
CC(C)(C)OC(=O)N1CCCC1C(=O)N1CCN(CCNc2ccnc3cc(Cl)ccc23)CC1 (stereo not drawn)	inactive	inactive	inactive			
CC(N)C(=O)N1CCN(CCNc2ccnc3cc(Cl)ccc23)CC1 (stereo not drawn)				0%	0%	100%
O=C(C1CCCN1)N1CCN(CCNc2ccnc3cc(Cl)ccc23)CC1 (stereo not drawn)	inactive	inactive	inactive			
O=[N+]([O-])c1ccc(OCCNc2ccnc3cc(Cl)ccc23)cc1	inactive	inactive	inactive			
CC(C)(C)OC(=O)NCC(=O)N1CCN(CCNc2ccnc3cc(Cl)ccc23)CC1				0%	0%	63%
ClCCNc1ccnc2cc(Cl)ccc12	inactive	inactive	inactive			
NCC(=O)N1CCN(CCNc2ccnc3cc(Cl)ccc23)CC1	inactive	inactive	inactive			
Clc1ccc2c(NCCN3CCNCC3)ccnc2c1	inactive	inactive	inactive			
CCN(CC)C(=O)N1CCN(C)CC1.O=C(O)CC(O)(CC(=O)O)C(=O)O [DIETHYLCARBAMAZINE CITRATE]				90%	0%	0%
O=[N+]([O-])c1cc2c(NCCO)ccnc2cc1Cl				0%	58%	0%
